The values below come from patent US8293464B2, “Methods for reducing the internalization of viruses and identification of compounds effective thereof” (Universiteit Gent, priority 2008, dated 2012).

The test system of assay [1] is surface expressed viral antigens in FIPV infected monocytes. The assay can be described thus: Internalization inhibition assay of surface expressed viral antigens (antigen-antibody complexes). Type of assay: cell-based, feline. Particulars: 30 min pre-incubation, 30 min with antibodies, each inhibitor at its working concentration.
The test system of another assay is feline monocytes. The assay can be described thus: Internalization assay of control ligands (beads, transferrin or albumin) in monocytes. Type of assay: cell-based. To be noted: 50 μg/ml genistein.

`O=c1c(-c2ccc(O)cc2)coc2cc(O)cc(O)c12` [genistein]: in assay [1], the “internalization of viral antigens” value is 81±4 % of untreated control. Further, in the assay with feline monocytes, the “internalization of the control ligand albumin” value is recorded as 3±5 % of the untreated control.
